# How the values were obtained:
# Experiment in all cases: relative viability (nuclei count vs DMSO), 5 days (fraction); higher = more cells survive
# Bexarotene + Palbociclib = compound: C=C(c1ccc(C(=O)O)cc1)c1cc2c(cc1C)C(C)(C)CCC2(C)C [Bexarotene] + CC(=O)c1c(C)c2cnc(Nc3ccc(N4CCNCC4)cn3)nc2n(C2CCCC2)c1=O [Palbociclib] (partner 0.5 µM)
# Outline: (§1)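 Lung cancer cell lines in 1536-well plates were dosed by pin tool the day after seeding, either with one drug alone or with a fixed anchor-drug dose plus five library-drug doses (not always all listed) in √10 steps. After 5 days, cells were fixed and their nuclei stained in one step (final 0.05% Triton X-100, 1% formaldehyde, 1 ug/ml Hoechst), then counted on 4× images. Relative viability is the nuclei count in treated wells divided by that in vehicle wells. Values are medians of duplicate plates.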
# Bexarotene + Crizotinib = compound: C=C(c1ccc(C(=O)O)cc1)c1cc2c(cc1C)C(C)(C)CCC2(C)C [Bexarotene] + C[C@@H](Oc1cc(-c2cnn(C3CCNCC3)c2)cnc1N)c1c(Cl)ccc(F)c1Cl [Crizotinib] (partner 1 µM)
# Outline: as §1
# Bexarotene + AZD7762 = compound: C=C(c1ccc(C(=O)O)cc1)c1cc2c(cc1C)C(C)(C)CCC2(C)C [Bexarotene] + NC(=O)Nc1cc(-c2cccc(F)c2)sc1C(=O)N[C@H]1CCCNC1 [AZD7762] (partner 0.2 µM)
# Outline: as §1
# Bexarotene + Vorinostat = compound: C=C(c1ccc(C(=O)O)cc1)c1cc2c(cc1C)C(C)(C)CCC2(C)C [Bexarotene] + O=C(CCCCCCC(=O)Nc1ccccc1)NO [Vorinostat] (partner 1 µM)
# Outline: as §1
Cell Line,relative viability (Bexarotene + Palbociclib; first compound 0.08 µM),relative viability (Bexarotene + Palbociclib; first compound 0.253 µM),relative viability (Bexarotene + Palbociclib; first compound 0.8 µM),relative viability (Bexarotene + Palbociclib; first compound 2.53 µM),relative viability (Bexarotene + Palbociclib; first compound 8 µM),relative viability (Bexarotene + Crizotinib; first compound 0.08 µM),relative viability (Bexarotene + Crizotinib; first compound 0.253 µM),relative viability (Bexarotene + Crizotinib; first compound 0.8 µM),relative viability (Bexarotene + Crizotinib; first compound 2.53 µM),relative viability (Bexarotene + Crizotinib; first compound 8 µM),relative viability (Bexarotene + AZD7762; first compound 0.08 µM),relative viability (Bexarotene + AZD7762; first compound 0.253 µM),relative viability (Bexarotene + AZD7762; first compound 0.8 µM),relative viability (Bexarotene + AZD7762; first compound 2.53 µM),relative viability (Bexarotene + AZD7762; first compound 8 µM),relative viability (Bexarotene + Vorinostat; first compound 0.08 µM),relative viability (Bexarotene + Vorinostat; first compound 0.253 µM),relative viability (Bexarotene + Vorinostat; first compound 0.8 µM),relative viability (Bexarotene + Vorinostat; first compound 2.53 µM),relative viability (Bexarotene + Vorinostat; first compound 8 µM)
201T,0.345,0.33,0.315,0.361,0.312,0.994,0.882,0.974,0.958,0.982,0.796,0.612,0.714,0.591,0.514,1.03,0.997,0.894,0.888,0.802
A549,,,,,,0.736,0.793,0.65,0.669,0.594,,,,,,,,,,
A-427,0.48,0.47,0.467,0.444,0.487,0.855,0.86,0.761,0.798,0.848,0.79,0.71,0.736,0.691,0.688,0.861,0.81,0.83,0.746,0.903
ABC-1,0.617,0.676,0.662,,0.655,1.02,0.893,0.853,1.3,0.829,0.729,0.797,0.747,0.667,0.876,1.07,0.883,0.742,,1.03
BEN,0.444,0.467,0.442,0.456,0.502,0.786,0.737,0.768,0.708,0.662,0.759,0.585,0.613,0.612,0.695,0.685,0.583,0.531,0.531,0.547
CAL-12T,0.442,0.465,0.342,0.417,0.441,0.73,0.608,0.466,0.564,0.489,0.649,0.549,0.603,0.427,0.513,0.723,0.837,0.887,0.529,0.655
COR-L23,0.283,0.274,0.279,0.257,0.274,0.747,0.633,0.605,0.498,0.558,,,,,,0.54,0.539,0.411,0.426,0.337
COR-L 105,0.382,0.368,0.409,0.421,0.392,0.863,0.951,0.88,0.857,0.699,,,,,,0.844,0.896,0.855,0.874,0.927
Calu-6,,,,,,0.786,0.753,0.72,0.823,0.94,,,,,,,,,,
ChaGo-K-1,1.09,0.983,0.99,0.967,1.01,1.19,1.23,1.15,,1.15,0.934,0.828,0.813,0.832,0.873,0.848,0.886,0.844,0.818,0.918
EBC-1,,,,,,0.196,0.212,0.237,0.217,0.192,,,,,,,,,,
EKVX,0.37,0.366,0.384,0.438,0.362,0.83,1.06,0.819,1.12,0.701,0.804,0.848,0.822,0.828,0.634,0.69,0.811,0.709,0.819,0.542
EMC-BAC-2,0.538,0.529,0.508,,0.502,0.742,0.806,0.633,0.706,0.667,1.17,1.09,1.06,,1.08,0.628,0.462,0.537,,0.522
EPLC-272H,0.313,0.358,0.312,0.314,0.354,0.877,0.971,0.854,0.853,0.772,0.199,0.259,0.517,0.208,0.271,0.398,0.671,0.492,0.681,0.484
H3255,0.333,0.335,0.316,0.344,0.346,0.882,0.92,0.958,0.989,0.959,0.948,0.941,0.975,0.851,1.05,0.759,0.913,0.843,0.787,0.869
HARA,0.269,0.239,0.243,0.294,0.277,1.15,0.993,0.885,0.948,0.798,0.336,0.272,0.412,0.303,0.262,0.655,0.512,0.584,0.606,0.51
HCC-15,0.779,0.925,0.753,0.794,0.726,0.842,0.924,0.789,0.837,0.783,1.23,1.17,1.27,1.1,1.44,0.877,0.892,0.823,0.889,0.81
HCC-44,1,1.03,0.836,0.93,0.946,0.766,0.82,0.824,0.782,0.776,0.978,1.12,0.927,0.967,0.964,1.09,1.05,0.971,1.04,1.16
HCC-78,0.518,0.416,0.403,0.473,0.509,0.317,0.308,0.375,0.305,0.33,0.638,0.391,0.542,0.554,0.638,0.425,0.523,0.513,0.402,0.459

# — the supplement of paper PMC10307832
